Experimental data: patent publication US11759444B2, “Methods for cancer and immunotherapy using prodrugs of glutamine analogs” (The Johns Hopkins University, priority 2015, dated 2023)
Entries after “also recorded” stand apart in the source; their conditions may differ. Each block holds one compound with its values, some of them ahead of it.

Columns and labels:
[1] = In vitro liver microsomal stability, human
[2] = In vitro liver microsomal stability, pig
[3] = Chemical stability of DON esters and prodrugs; format: physicochemical
[4] = In vitro plasma stability, monkey plasma; settings: for PLASMA STABILITY Monkey: Table 2, prodrug 10 μM, 60 min incubation at 37° C., values read as % prodrug remaining
[5] = In vitro plasma stability, human plasma; settings: for PLASMA STABILITY Human: Table 2, prodrug 10 μM, 60 min incubation at 37° C., values read as % prodrug remaining
[6] = In vitro plasma stability, mouse plasma; settings: Table 2; prodrug 10 μM, 60 min incubation at 37° C.; values read as % prodrug remaining
[7] = Plasma and CSF pharmacokinetics in swine, i.v. infusion; format: in vivo, Göttingen×Yucutan miniature swine; settings: 60 min post-administration
U87 human glioma cells = test: U87 flank xenograft mouse model of GBM; format: in vivo; settings: 0.8 mg/kg, i.p.; for GBM tumor growth: q.d. days 1-6
Procedure: All mouse efficacy studies were conducted according to protocol #M013M69 approved by the Animal Care and Use Committee at Johns Hopkins University. Female athymic (RH_Foxn1nu mice) mice between 25 and 30 g were obtained (Harlan Sprague Dawley Inc, Indianapolis, Ind.), and maintained on a 12 hour light-dark cycle with ad libitum access to food and water. U87 human glioma cells were injected s.c. (5×10^6 cells in […] of PBS) in four separate locations on the flanks of each mouse. When tumors grew to a mean volume of around 200 mm^3, mice were randomized into either vehicle (HEPES-buffered saline, i.p.) or DON (1; 0.8 mg/kg, i.p.). In one cohort, mice were administered a single dose of the appropriate solution two hours after which glutamine levels were quantified in the tumor as described previously.^49 In brief, tumors were harvested, snap frozen, and homogenized in liquid N2 then subjected to metabolite extraction using methanol and DI water. Quantification was performed using Agilent 6520 Quadrupole-Time-of-Flight (Q-TOF) mass spectrometer with Agilent 1290 HPLC and using Agilent Mass Hunter and Agilent Qualitative and Quantitative Analysis Software packages. Glutamine content was averaged by group for each individual tumor (n=3-4/group), depicted as relative intensity, and analyzed by one-tailed t test. In a second cohort, efficacy experiments were conducted. Mice were injected once daily for six days; tumor volumes were measured using digital calipers and calculated according to the formula: [volume=(largest tumor dimension)×(smallest tumor dimension)×0.52] at 2, 4, and 6 days after the onset of treatment. Each individual tumor (n=8-10/group) was normalized to its pretreatment volume, averaged and analyzed by repeated measures two-way analysis of variance (ANOVA). If significant, a Bonferroni post hoc test was subsequently applied. Significance was defined as p<0.05.

B16 melanoma = B16 melanoma mouse model; format: in vivo
tumor cells = test: Oxygen consumption and lactate production of tumor cells; format: cell-based
[8] = Brain and plasma pharmacokinetics in mice, oral; format: in vivo, C57BL/6 mice; settings: 0.8 mg/kg DON equivalent
Procedure: All pharmacokinetic studies in mice were conducted according to protocol (#M013M113) approved by the Animal Care and Use Committee at Johns Hopkins University. C57BL/6 mice between 25 and 30 g were obtained from Harlan, and maintained on a 12 hour light-dark cycle with ad libitum access to food and water. To evaluate the brain and plasma pharmacokinetics of DON and its prodrug 5c, 8-12 week old C57BL/6 were administered DON (1; 0.8 mg/kg, p.o. in phosphate-buffered saline) and its prodrug 5c (at 0.8 mg/kg equivalent DON (1), p.o. in phosphate-buffered saline with 5% EtOH and 5% Tween-80). The mice were sacrificed by pentobarbital injection at 10, 30 and 90 minutes post drug administration, and blood was collected via cardiac puncture and placed into iced EDTA coated BD microtainers. […]
We have previously published a highly sensitive method for analysis of DON in biological matrices (Alt, et al., 2015). […] The mean predicted […] for back calculated concentrations of the standards and QC's for all analytes were within the range of 85 to 115%, except for the lowest concentration which was within the range of 80 to 120% with an overall accuracy and precision of 6.7% and 6.6% respectively.
Mean concentration-time data was used for pharmacokinetic analysis. […] Area under the curve (AUC) was calculated by log-linear trapezoidal rule to the end of sample collection (AUClast).

TILs = test: CD8/Treg ratio in the tumor and hypoxia in the TILs; settings: in vivo
EL4 lymphoma = test: EL4 mouse lymphoma model; format: in vivo; settings: monotherapy
[9] = cited from earlier work

liver microsomal stability, human [1]: moderate-high stability
liver microsomal stability, pig [2]: moderate-high stability
SMILES: CC(C)OC(=O)[C@H](CCC(=O)C=[N+]=[N-])NC(=O)[C@@H](N)Cc1c[nH]c2ccccc12 [Compound 38a]

SMILES: CC(C)OC(=O)[C@@H]1CCC(C=[N+]=[N-])=N1 [Compound 9b]
chemical stability [3]: chemically stable even at acidic pH

PLASMA STABILITY Monkey [4]: 10%
PLASMA STABILITY Human [5]: 30%
PLASMA STABILITY Mouse [6]: 0%
SMILES: CC(C)OC(=O)[C@H](CCC(=O)C=[N+]=[N-])NC(=O)[C@@H](N)Cc1cc2ccccc2[nH]1 [Compound 38]

SMILES: CCOC(=O)C(N)CCC(=O)C=[N+]=[N-] (stereo not drawn) [Compound 2a]
chemical stability [3]: unstable

liver microsomal stability, human [1]: moderate-high stability
liver microsomal stability, pig [2]: moderate-high stability
SMILES: CC(=O)N[C@@H](Cc1c[nH]c2ccccc12)C(=O)N[C@@H](CCC(=O)C=[N+]=[N-])C(=O)OC(C)C [Compound 60a]

PLASMA STABILITY Monkey [4]: 0%
PLASMA STABILITY Human [5]: 0%
PLASMA STABILITY Mouse [6]: 0%
SMILES: Cc1oc(=O)oc1COC(=O)N[C@@H](CCC(=O)C=[N+]=[N-])C(=O)OC(C)C [Compound 13]

PLASMA STABILITY Monkey [4]: 0%
PLASMA STABILITY Human [5]: 9%
PLASMA STABILITY Mouse [6]: 0%
SMILES: CC(C)OC(=O)[C@H](CCC(=O)C=[N+]=[N-])NC(=O)OCOC(=O)C(C)(C)C [Compound 42]

SMILES: CC(C)OC(=O)[C@H](CCC(=O)C=[N+]=[N-])NC(=O)OC(OC(=O)C(C)(C)C)c1ccccc1 (stereo partly drawn) [Compound 47]
CSF delivery of DON [7]: substantially higher amounts of DON; also recorded: enhanced CSF delivery of DON
CSF-to-plasma ratio of DON [7]: increased CSF-to-plasma ratios; also recorded: enhanced CSF:plasma ratio of DON

PLASMA STABILITY Monkey [4]: 4%
PLASMA STABILITY Human [5]: 12%
PLASMA STABILITY Mouse [6]: 0%
SMILES: CCOC(=O)[C@H](CCC(=O)C=[N+]=[N-])NC(=O)[C@@H](N)Cc1cc2ccccc2[nH]1 [Compound 34]

chemical stability [3]: unstable
SMILES: CC(C)OC(=O)C(N)CCC(=O)C=[N+]=[N-] (stereo not drawn) [Compound 2b]

PLASMA STABILITY Monkey [4]: 0%
PLASMA STABILITY Human [5]: 0%
PLASMA STABILITY Mouse [6]: 0%
SMILES: CCOC(=O)[C@H](CCC(=O)C=[N+]=[N-])NC(=O)OCc1oc(=O)oc1C [Compound 36]

PLASMA STABILITY Monkey [4]: 75%
PLASMA STABILITY Human [5]: 88%
PLASMA STABILITY Mouse [6]: 0%
SMILES: CCOC(=O)[C@H](CCC(=O)C=[N+]=[N-])NC(=O)OC(C)OC(=O)C(C)(C)C (stereo partly drawn) [Compound 32]

stability in monkey plasma [4]: stable
stability in human plasma [5]: stable
SMILES: CCOC(=O)[C@H](CCC(=O)C=[N+]=[N-])NC(=O)OC(C)OC(=O)C(C)(C)C (stereo partly drawn) [Compound 5b]

SMILES: [N-]=[N+]=CC(=O)CC[C@H](N)C(=O)O [DON, 6-diazo-5-oxo-L-norleucine]
glutamine metabolism in flank GBM tumor (endogenous glutamine accumulation) (U87 human glioma cells; 2 hours post-administration): inhibited glutamine metabolism
reduction in tumor volume (U87 human glioma cells; q.d.): > 50%
weight loss (U87 human glioma cells; q.d.): 12±4.1%
GBM tumor growth (U87 human glioma cells): halted tumor growth, but also effectively induced tumor regression
GBM tumor growth (U87 human glioma cells; listed as 1): dramatic reduction in tumor size
signs of toxicity (U87 human glioma cells; q.d., all mice receiving DON): hunching, ptosis, and lethargy
tumor infiltrating regulatory T cells (Foxp3+) (B16 melanoma; B16 melanoma): inhibiting tumor infiltrating regulatory T cells
melanoma tumor growth (B16 melanoma; monotherapy): modest effect
lactate production of tumor cells (tumor cells): reduces
oxygen consumption of tumor cells (tumor cells): reduces
AUC0-t of DON in brain [8]: 0.57 nmol·h/g
CD8/Treg ratio in the tumor (TILs): improved the CD8/Treg ratio
hypoxia in the TILs (TILs): reduces hypoxia in the TILs
lymphoma tumor growth (EL4 lymphoma): markedly inhibit lymphoma growth
clinical toxicity ([9]; human, in vivo): dose limiting toxicities, many of which were GI-related
regression or stable disease in patients ([9]; late stage adult patients, children with hematological malignancies or solid tumors): > 50%

PLASMA STABILITY Monkey [4]: 1%
PLASMA STABILITY Human [5]: 1%
liver microsomal stability, human [1]: moderate-high stability
liver microsomal stability, pig [2]: moderate-high stability
PLASMA STABILITY Mouse [6]: 0%
SMILES: CC(C)C[C@H](N)C(=O)N[C@@H](CCC(=O)C=[N+]=[N-])C(=O)OC(C)C [Compound 9]

SMILES: CCOC(=O)[C@@H]1CCC(C=[N+]=[N-])=N1 [Compound 9a]
chemical stability [3]: chemically stable even at acidic pH
